Assay results from patent publication US20240382564A1, “Methods and Compositions for Treating Muscular Dystrophy and Memory Impairment” (Allysta Pharmaceuticals, Inc., priority 2023, published 2024).
Where no end group is shown, it is not given here. [ ]: non-standard residue; d: D form. Nva = CCC[C@H](N)C(=O)O

Tests used:
Type in all cases: in vivo, mouse
D2.mdx mice [1] = experiment: Muscle cytokine protein profiling (LEGENDplex); details: HD
Description: (§1) D2.mdx mice were treated with ALY688 at two different dosages; high dose (HD; 15 mg/kg body weight/day) or low dose (LD; 3 mg/kg body weight/day) dissolved in saline. A separate group of mice were treated with saline alone (VEH, vehicle). Treatment was provided via subscapular subcutaneous injections from 7 days of age to 28-30 days. […] At 28-30 days of age, mice were anaesthetized with isoflurane vaporized in medical air (21% oxygen) at a 2 L/min flow rate. Due to tissue limitations in limb muscle, certain measures were performed separately in tibialis anterior and quadriceps across several phases of breeding. Following the treatment protocol, in situ quadriceps force assessments were then performed in one limb followed by removal of the quadriceps from the other limb for mitochondrial assessments, diaphragm for in vitro force assessments and finally other tissues for further processing as described below. Muscle and visceral organs weights were normalized to tibia length. Tissue collected from the first phase were utilized in force, histological, mitochondrial measures (respiration, mH2O2 and calcium retention capacity) and western analyses (diaphragm and quadriceps only). A second phase was then collected and utilized for cytokine profiling, qPCR analyses and additional westerns (TA only). Serum was collected from both phase 1 and 2 and utilized for serum CK analysis. All animals were utilized in in vivo functional assays (grip strength, cage hang time and voluntary wheel running).
Tibialis anterior and diaphragm samples were homogenized in lysis buffer containing (in mM) (20 Tris/HCl, 150 NaCl, 1 EDTA, 1 EGTA, 1% Triton X-100, 2.5 Na4O7P2, 1 Na3VO4, pH 7.0) supplemented with protease (Roche) and phosphatase inhibitors (Sigma). Samples were diluted two-fold in the assay buffer before loading to the plates with beads. According to the manufacturer's instructions, levels of TGF-β, TNF-α, IL-1β, IL-6 and IL-10 in the homogenates were measured using LEGENDplex™ Mouse Custom Panel. Assay was performed in the Attune NxT flow cytometer (Thermo Fisher). The FCS files generated on the flow cytometer were analyzed using the LEGENDplex™ cloud-based analysis software.

D2.mdx mice [2] = experiment: Western blotting of electron transport chain complex subunits in muscle
Description: as §1
Frozen sections of quadriceps and diaphragm from each muscle (approximately 10-30 mg in size) were homogenized using a plastic microcentrifuge tube with tapered Teflon pestle in ice-cold lysis buffer containing (in mM) (20 Tris/HCl, 150 NaCl, 1 EDTA, 1 EGTA, 1% Triton X-100, 2.5 Na4O7P2, 1 Na3VO4, pH 7.0) supplemented with protease (Sigma) and phosphatase inhibitors (Roche). A 12% gel was used to separate electron transport chain proteins and all other proteins were separated on a 10% gel. Following, all gels were transferred onto 0.2μm low fluorescence PVDF membrane (Bio-Rad, Mississauga, Canada) and blocked with Li-COR Intercept Blocking Buffer (LI-COR, Lincoln NE, USA) for 1 hour. Membranes were then incubated with specific primary antibodies (listed below) overnight at 4° C. A commercially available monoclonal rodent OXPHOS Cocktail (ab110413; Abcam, Cambridge, UK, 1:250 dilution) including V-ATP5A (55 kDa), III-UQCRC2 (48 kDa), IV-MTCO1 (40 kDa), II-SDHB (30 kDa), and I-NDUFB8 (20 kDa) were used to detect electron transport chain proteins. […] Prior to detection, membranes were washed in TBS-T three times for 5 minutes and then imaged using infrared imaging (LI-COR CLx; LI-COR, Lincoln, NE, USA) and quantified by densitometry (ImageJ, http://imagej.nih.gov/ij/). […]

D2.mdx mice [3] = experiment: Functional assays (grip strength, cage hang time, voluntary wheel running) and serum creatine kinase
Description: as §1
Voluntary wheel running, cage hang time and forelimb grip strength were assessed two days before sacrifice. Serum derived from cardiac puncture at the time of sacrifice were assessed spectrofluorometrically for creatine kinase activity (U/L).

D2.mdx mice [4] = experiment: Serum cytokine profiling (LEGENDplex)
Description: Male D2.mdx mice originated from a colony maintained at York University (Toronto, Canada) and sourced from Jackson Laboratories (Stock Number 013141, Bar Harbor, United States). Mice were treated daily from days 7 to 28 of age with ALY688 at 15 mg/kg b.w. (D2.mdx-ALY688) or saline control (D2.mdx-VEH). This age was chosen given it captures an early stage of disease progression in cardiac and skeletal muscle. Mice were sacrificed 20-24 hr after the last dose. Breeding of wildtype mice was unsuccessful. Instead, three-week-old wildtype DBA/2J WT mice (D2A) were obtained from Jackson Laboratories (Stock number 000671, Bar Harbor, United States) and allowed to acclimatize for one week before sacrifice. Mice were housed in standard 12:12-hr light:dark cycles and were allowed access to standard rodent chow and water ad libitum. 4 days prior to sacrifice, all groups underwent novel object recognition acclimatization and testing as described below. Mice were anesthetized under 5% isoflurane vaporized in medical air (21% oxygen) at a flow rate of 2 L/min and then maintained at 2-3% prior to euthanasia by exsanguination. Muscles were removed and used for another investigation (under review at the time of this submission). The right and left hippocampus were then quickly dissected from the brain with a portion placed immediately into ice-cold BIOPS, containing (in mM): 50 MES Hydrate, 7.23 K2EGTA, 2.77 CaK2EGTA, 20 imidazole, 0.5 dithiothreitol, 20 taurine, 5.77 ATP, 15 PCr, and 6.56 MgCl2·6H2O (pH 7.1) or flash-frozen in liquid nitrogen and stored at −80° C. for RNA isolation and western blotting. All experiments and procedures were approved by the Animal Care Committee at York University (AUP Approval Number 2016-18) in accordance with the Canadian Council on Animal Care.
Protein contents of TGF-β, TNF-α, IL-1β, IL-6 and IL-10 in serum were measured by flow cytometry using LEGENDplex™ Mouse Custom Panel (BioLegend; San Diego, CA, USA). […] The FCS files generated on the flow cytometer were analyzed using the LEGENDplex™ cloud-based analysis software.

## [dN]IP[Nva]LY[dS]FA[dS]-NH2 [ALY688]
D2.mdx mice [1]; diaphragm
  IL-6 protein content: 69.1 % increase vs VEH
  IL-10 protein content: not different between groups
  TGF-β protein content: 20.3 % increase vs VEH
  TNF-α protein content: not different between groups
D2.mdx mice [1]; tibialis anterior, VEH 40.6 pg/ml, not detectable in wildtype
  prevention of the increase in TNF-α protein content: 83.9%
D2.mdx mice [2]; diaphragm, LD
  complex IV content: −27.0 % vs WT
D2.mdx mice [2]; diaphragm, disease state groups
  total sum of electron transport chain complexes: −13.8 to −19.3 % vs WT
D2.mdx mice [2]; quadriceps and diaphragm, disease state groups (VEH, LD, HD)
  specific subunits of complex III and V: −14.7 to −31.5 % vs WT
D2.mdx mice [2]; quadriceps, HD
  total sum of electron transport chain complexes: −29.1 % vs WT
D2.mdx mice [3]; D2.mdx groups
  serum creatine kinase: 3.1-to-5.2 fold increase vs WT
D2.mdx mice [3]; VEH, LD, HD
  grip strength, cage hang time and voluntary wheel running, comparison between D2.mdx groups: similar
D2.mdx mice [3]; all D2.mdx groups
  grip strength, cage hang time and voluntary wheel running: −15.1% to −91.0
D2.mdx mice [3]; low dose vs other D2.mdx groups
  serum creatine kinase: increases seen with the low dose
D2.mdx mice [4]; relative to D2.mdx-VEH
  serum IL-1β: increased
D2.mdx mice [4]; vs D2.mdx-VEH
  serum IL-6: attenuated
D2.mdx mice [4]; vs wildtype
  serum IL-10: increasing
